Legend:
[1] = test system: 13 recombinant human CYP enzymes; assay: Oxidation rates by 13 recombinant human CYP enzymes at fixed substrate concentration (Figure 2); assay type: biochemical; settings: 25 nM CYP; for CYP1 form oxidizing the substrate fastest: 10 μM coumarin derivative or 1 μM 7-ethoxy/7-pentoxyresorufin
Procedure: (§1) Baculovirus-insect cell-expressed human CYP1A1, CYP1A2, CYP1B1, CYP2A6, CYP2B6, CYP2C8, CYP2C9, CYP2C19, CYP2D6, CYP2E1, CYP3A4, CYP3A5, and CYP3A7 were purchased from BD Biosciences Discovery Labware (Woburn, MA, USA) and used according to the manufacturer’s instructions.
(§2) The kinetic assays were carried out in 100 μL volume containing 100 mM Tris-HCl buffer pH 7.4, 0–40 μM coumarin derivative or 0–10 μM 7-ethoxyresorufin, 1–25 nM recombinant CYP or 0–0.1 g/L microsomal protein, and 20% NADPH regenerating system. Incubations took place at 37 °C in 96-multiwell plates; the fluorescence was measured with a Victor[2] plate reader (PerkinElmer Life Sciences, Turku, Finland). The detailed conditions are described in the figures and tables. The reaction was started by adding NADPH, and fluorescence was measured at 2 min intervals for 40 min using excitation at 405 nm and emission at 460 nm for oxidation of coumarin derivatives[18] and excitation at 570 nm and emission at 615 nm for ethoxyresorufin or pentoxyresorufin 7-O-dealkylations. Incubations without the substrate, enzyme, or NADPH were used as blank reactions. Resorufin was used as a standard, and 3-(4-fluorophenyl)-7-hydroxycoumarin was used as the surrogate standards to calculate the amount of product formed. The linear phase of the reactions was used for calculations.
To find out which CYP forms oxidize the 11 novel coumarin derivatives, we determined their oxidation rates to the corresponding 7-hydroxycoumarin metabolites by 13 recombinant human CYP enzymes at a fixed 10 μM substrate concentration (Figure 2). All except 21, 22, and 23 were oxidized faster by one or several CYP1 forms than by the other CYP forms. […] Oxidation rates of the classical CYP substrates 7-ethoxycoumarin, 7-ethoxyresorufin, and 7-pentoxyresorufin were also determined. […] Oxidation of 7-ethoxycoumarin and 7-ethoxyresorufin was 35 and 60 times faster, respectively, than oxidation of 7-pentoxyresorufin. 7-Ethoxyresorufin was oxidized by CYP1A2 and CYP1B1 at 30–40% of the rate of CYP1A1.
Figure 2 Oxidation of the coumarin derivatives and 7-ethoxy- and 7-pentoxyresorufin by 13 human CYP forms. The formation of fluorescent metabolites was determined in incubations containing a 25 nM CYP, a 20% NADPH regenerating system, and a 10 μM coumarin derivative or 1 μM 7-ethoxy/7-pentoxyresorufin in 100 mM Tris-HCl pH 7.4 in the kinetic experimental setup. […] Note the variation in Y-axis scales between subpanels.

human CYP1A1 = molecular target: T1, human CYP1A1 (Homo sapiens, UniProt P04798); assay: Michaelis–Menten kinetics of oxidation to fluorescent 7-hydroxy metabolite by recombinant CYP1A1; assay type: biochemical; set-up: key to screening activity class: NA, no activity was observed.; LA, low screening activity at the 20 μM substrate and 25 nM CYP concentration
T1 construct: purchased BD Biosciences Discovery Labware (Woburn, MA, USA); host or cells: baculovirus-insect cells
T1 sequence (P04798 1-512): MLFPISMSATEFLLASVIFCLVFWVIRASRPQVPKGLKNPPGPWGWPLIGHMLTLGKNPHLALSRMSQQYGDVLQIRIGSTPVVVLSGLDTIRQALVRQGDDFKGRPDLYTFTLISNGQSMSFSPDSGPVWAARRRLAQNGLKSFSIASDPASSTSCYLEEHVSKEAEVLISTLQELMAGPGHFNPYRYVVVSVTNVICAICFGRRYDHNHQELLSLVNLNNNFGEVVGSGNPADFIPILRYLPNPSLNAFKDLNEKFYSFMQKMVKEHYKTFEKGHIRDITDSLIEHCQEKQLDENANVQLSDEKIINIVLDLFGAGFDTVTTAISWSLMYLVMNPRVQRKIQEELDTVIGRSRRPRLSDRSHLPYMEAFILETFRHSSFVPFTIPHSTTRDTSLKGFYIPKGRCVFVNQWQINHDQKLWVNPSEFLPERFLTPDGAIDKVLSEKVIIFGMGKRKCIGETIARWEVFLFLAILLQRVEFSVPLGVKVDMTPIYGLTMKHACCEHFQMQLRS
Procedure: as §1, §2
(§3) Enzyme kinetic parameters were analyzed using the nonlinear Michaelis–Menten equation v = Vmax × S/(Km + S), in which v is the rate for 7-hydroxylation of a coumarin derivative, S is its concentration, and Vmax value is the limiting rate of the reaction of 7-hydroxylation, which reached a half-maximal rate at a concentration of Km for the substrate.

CYP1A2 = molecular target: T2, CYP1A2 (Homo sapiens, UniProt P05177); assay: Michaelis–Menten kinetics of oxidation to fluorescent 7-hydroxy metabolite by recombinant CYP1A2; assay type: biochemical; set-up: key to screening activity class: NA, no activity was observed.; LA, low screening activity at the 20 μM substrate and 25 nM CYP concentration; settings: for Vmax: recombinant CYP1A2, surrogate standard
T2 construct: purchased BD Biosciences Discovery Labware (Woburn, MA, USA); host or cells: baculovirus-insect cells
T2 sequence (P05177 1-516): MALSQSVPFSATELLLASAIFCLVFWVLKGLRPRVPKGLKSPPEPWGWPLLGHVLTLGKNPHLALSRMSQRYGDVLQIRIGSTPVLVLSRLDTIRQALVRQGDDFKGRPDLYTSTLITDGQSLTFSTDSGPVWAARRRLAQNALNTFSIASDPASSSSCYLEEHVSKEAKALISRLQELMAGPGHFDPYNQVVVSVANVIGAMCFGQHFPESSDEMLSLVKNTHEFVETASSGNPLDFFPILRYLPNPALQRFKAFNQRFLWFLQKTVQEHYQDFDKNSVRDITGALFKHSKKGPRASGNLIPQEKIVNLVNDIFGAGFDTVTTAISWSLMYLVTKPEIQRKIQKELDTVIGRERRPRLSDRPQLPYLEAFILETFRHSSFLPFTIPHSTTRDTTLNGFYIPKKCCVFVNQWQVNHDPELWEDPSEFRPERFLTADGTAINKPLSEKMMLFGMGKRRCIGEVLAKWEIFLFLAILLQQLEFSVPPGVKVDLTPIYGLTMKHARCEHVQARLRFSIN
Procedure: as §1, §2, §3

[2] = test system: human CYP1 enzymes (CYP1A1, CYP1A2, CYP1B1); assay: Oxidation efficiency compared across all CYP1 forms (Table 1); assay type: biochemical; settings: based on Table 1
Procedure: as §1, §2, §3

[3] = substrate: CCOc1ccc2ccc(=O)oc2c1; assay: Michaelis–Menten kinetics of oxidation to fluorescent 7-hydroxy metabolite by recombinant CYP1B1; assay type: biochemical, human; settings: other: recombinant CYP1B1, 100 mM Tris-HCl pH 7.4, 37 °C, 95% confidence interval in brackets
Procedure: as §1, §2, §3

[4] = substrate: COc1cccc(-c2cc3cc(OC)ccc3oc2=O)c1; assay: as above; assay type: biochemical, human; settings: other: recombinant CYP1B1, 100 mM Tris-HCl pH 7.4, 37 °C, 95% confidence interval in brackets
Procedure: as §1, §2, §3

[5] = substrate: CC(=O)Oc1cccc(-c2cc3cc(Cl)ccc3oc2=O)c1; assay: as above; assay type: biochemical, human; settings: other: recombinant CYP1B1, 100 mM Tris-HCl pH 7.4, 37 °C, 95% confidence interval in brackets
Procedure: as §1, §2, §3

[6] = substrate: CC(=O)Oc1ccc(-c2cc3cc(Cl)ccc3oc2=O)cc1; assay: as above; assay type: biochemical, human; settings: other: recombinant CYP1B1, 100 mM Tris-HCl pH 7.4, 37 °C, 95% confidence interval in brackets
Procedure: as §1, §2, §3

[7] = substrate: CCCCCOc1ccc2nc3ccc(=O)cc-3oc2c1; assay: as above; assay type: biochemical, human; settings: other: recombinant CYP1B1, 100 mM Tris-HCl pH 7.4, 37 °C, 95% confidence interval in brackets
Procedure: as §1, §2, §3

[8] = substrate: O=c1oc2ccc(O)cc2cc1-c1cccc(O)c1; assay: as above; assay type: biochemical, human; settings: other: recombinant CYP1B1, 100 mM Tris-HCl pH 7.4, 37 °C, 95% confidence interval in brackets
Procedure: as §1, §2, §3

[9] = substrate: CCOc1ccc2nc3ccc(=O)cc-3oc2c1; assay: as above; assay type: biochemical, human; settings: other: recombinant CYP1B1, 100 mM Tris-HCl pH 7.4, 37 °C, 95% confidence interval in brackets
Procedure: as §1, §2, §3

[10] = 95% confidence interval in brackets

CCCCCOc1ccc2nc3ccc(=O)cc-3oc2c1 [Compound 26, 7-pentoxyresorufin, reference compound]
CYP1 form oxidizing the substrate fastest [1]: oxidized faster by CYP1A1 than the other CYP1 enzymes
fluorescence change and rate of the oxidation ([1]; fixed substrate concentration): lowest
Vmax (human CYP1A1; recombinant CYP1A1, surrogate standard, 95% confidence interval in brackets): 1.35 mol/(min·mol CYP)
Vmax (CYP1A2; [10]): 0.25 mol/(min·mol CYP)
substrate efficiency compared among CYP1 enzymes [2]: efficient substrates for CYP1A1 compared with CYP1A2 and CYP1B1

CCOc1ccc2ccc(=O)oc2c1 [Compound 24, 7-ethoxycoumarin, reference compound]
CYP1 form oxidizing the substrate fastest [1]: oxidized faster by CYP1A1 than the other CYP1 enzymes
oxidation rate relative to oxidation of 7-pentoxyresorufin ([1]; fixed substrate concentration): 35 times
Km (CYP1A2; human, recombinant CYP1A2 (baculovirus-insect cell-expressed), recombinant CYP1A2, 100 mM Tris-HCl pH 7.4, 37 °C, 95% confidence interval in brackets): 7.7 µM
Vmax (CYP1A2; [10]): 2.0 (1.4–2.6) mol/(min·mol CYP)
substrate efficiency compared among CYP1 enzymes [2]: efficient substrates for CYP1A1 compared with CYP1A2 and CYP1B1

CC(=O)Oc1cccc(-c2cc3cc(Cl)ccc3oc2=O)c1 [Compound 22, 3-(3-acetoxyphenyl)-6-chlorocoumarin]
CYP1 form oxidizing the substrate fastest [1]: oxidized faster by CYP1B1 than by CYP1A1 or CYP1A2
fluorescence change and rate of the oxidation ([1]; fixed substrate concentration): almost equally low
screening activity class (human CYP1A1; CYP1A1, 20 μM substrate and 25 nM CYP): LA
screening activity class (CYP1A2; CYP1A2, 20 μM substrate and 25 nM CYP): LA

B1: human CYP1B1 (Homo sapiens) (protein)
chain: MGTSLSPNDPWPLNPLSIQQTTLLLLLSVLATVHVGQRLLRQRRRQLRSAPPGPFAWPLIGNAAAVGQAAHLSFARLARRYGDVFQIRLGSCPIVVLNGERAIHQALVQQGSAFADRPAFASFRVVSGGRSMAFGHYSEHWKVQRRAAHSMMRNFFTRQPRSRQVLEGHVLSEARELVALLVRGSADGAFLDPRPLTVVAVANVMSAVCFGCRYSHDDPEFRELLSHNEEFGRTVGAGSLVDVMPWLQYFPNPVRTVFREFEQLNRNFSNFILDKFLRHCESLRPGAAPRDMMDAFILSAEKKAAGDSHGGGARLDLENVPATITDIFGASQDTLSTALQWLLLLFTRYPDVQTRVQAELDQVVGRDRLPCMGDQPNLPYVLAFLYEAMRFSSFVPVTIPHATTANTSVLGYHIPKDTVVFVNQWSVNHDPLKWPNPENFDPARFLDKDGLINKDLTSRVMIFSVGKRRCIGEELSKMQLFLFISILAHQCDFRANPNEPAKMNFSYGLTIKPKSFKVNVTLRESMELLDSAVQNLQAKETCQ
notes: purchased BD Biosciences Discovery Labware (Woburn, MA, USA); host or cells: baculovirus-insect cells
Km [3]: 120 (0–282) μM
kcat [3]: 1.75 (0–3.54) mol/(min·mol CYP)
Km [4]: 0.43 (0.24–0.61) μM
kcat [4]: 9.3 (8.2–10.4) mol/(min·mol CYP)
Km [5]: 1.1 (0.5–1.7) μM
kcat [5]: 1.1 (0.96–1.2) mol/(min·mol CYP)
Km [6]: 0.095 (0.04–0.15) μM
kcat [6]: 5.1 (4.7–5.5) mol/(min·mol CYP)
Km [7]: 2.59 (1.65–3.53) μM
kcat [7]: 0.37 (0.28–0.46) mol/(min·mol CYP)
Km [8]: 0.53 (0–1.1) μM
kcat [8]: 0.29 (0.25–0.34) mol/(min·mol CYP)
Km [9]: 0.096 (0.072–0.119) μM
kcat [9]: 3.3 (3.0–3.6) mol/(min·mol CYP)

— paper PMC8153946, “Substrate Selectivity of Coumarin Derivatives by Human CYP1 Enzymes: In Vitro Enzyme Kinetics and In Silico Modeling” (ACS Omega, 2021)
